Measured values published in patent US4221787A, “Esteramide prodrugs of anti-inflammatory corticosteroids” (INTERx Research Corporation, priority 1979, dated 1980).

Legend:
burned rat ear = test: Effect of selected steroid derivatives on ear burn inflammation; assay type: in vivo, Sprague-Dawley rats; conditions: 0.03 M steroid in isopropyl myristate, rat ear burned at 51.7° C. for 10 seconds, ears weighed after 16 hours, 5 rats
Experimental: The pressure of the cylinder on the rat ear was reproduced by using only the weight of the top brass cylinder (2.5 lbs) to apply the pressure. The burned rat ear was then immediately treated on both sides with […] of vehicle (isopropyl myristate) or 0.03 M steroid in the vehicle. After 16 hours, both ears of the rat were removed along anatomical guidelines and weighed.
The increase of weight caused by the burn was determined by subtracting the weight of the untreated left ear from the weight of the treated right ear.
The percent inhibition of inflammation was then determined as the weight increase of burned rat ears treated only with vehicle minus the weight increase of burned rat ears treated with vehicle containing the steroid divided by the weight increase of burned rat ears treated only with vehicle times one hundred.

thymus glands = test: Effect of selected steroid derivatives on thymus weight (systemic effect); assay type: in vivo, Sprague-Dawley rats; conditions: 48 hours after burn and application of 0.03 M steroid in isopropyl myristate; lower weight = more pronounced systemic effect; Control 233.5 ± 11.5
Experimental: A modification of the method of Tonelli et al, Endocrinology, 77, 625 (1965), was used. […] The rats were first anesthetized with phenobarbitol, then the right ear of each rat was burned on both side for 10 seconds between two vertically oriented brass cylinders heated with water at 51.7° C. from a constant temperature bath. The pressure of the cylinder on the rat ear was reproduced by using only the weight of the top brass cylinder (2.5 lbs) to apply the pressure. The burned rat ear was then immediately treated on both sides with […] of vehicle (isopropyl myristate) or 0.03 M steroid in the vehicle. After 16 hours, both ears of the rat were removed along anatomical guidelines and weighed.
Effect of Selected Steroid Derivatives on Thymus Weight
The rats used in the ear burn test described in Example 18 were revived and 48 hours after the burn and application of the steroid, they were sacrificed with carbon dioxide. Then their thymus glands were removed and weighed. The lower the weight of thymus, the more pronounced the systemic effect of the steroid.

mouse skin = conditions: in vivo
Experimental: Effect of Selected Steroid Derivatives on Skin Thickness A modification of the method of Smith et al, Arch Derrmatol, 112, 1115 (1976), was used. Hairless mice were used instead of rats. The steroids were tested at 0.03 M in propyleneglycol suspension except for hydrocortisone 17-butyrate which was soluble. Each suspension (50 μl) was applied to the backs of 9 mice daily. On the twenty-ninth day of the experiment, the mice were sacrificed with carbon dioxide and the double fold skin thickness was immediately measured using an Ames micrometer accurate to 0.0001 inch at a pressure of 28 lb/cm^2. The measurement was taken after three minutes had elapsed from the time the mouse skin was placed in the micrometer.

| Structure (SMILES) | % Inhibition (of ear burn inflammation) (burned rat ear) [%] | Thymus Weight (thymus glands) [mg] | % Decrease from Control (double fold skin thickness) (mouse skin) [%] |
| --- | --- | --- | --- |
| CC(=O)OCC(=O)[C@@]1(O)CC[C@H]2[C@@H]3CCC4=CC(=O)CC[C@]4(C)[C@H]3[C@@H](O)C[C@@]21C [Hydrocortisone 21-acetate] | 31.0 | 177.2 ± 11.0 | 37.5 |
| CCN(CC)C(=O)CCC(=O)OCC(=O)[C@@]1(O)CC[C@H]2[C@@H]3CCC4=CC(=O)CC[C@]4(C)[C@H]3[C@@H](O)C[C@@]21C [4-Pregnene-11β,17α-dihydroxy-21-(N,N-diethylsuccinamyloxy)-3,20-dione] | 49.2 | – | 26.7 |
| C[C@]12CCC(=O)C=C1CC[C@@H]1[C@@H]2[C@@H](O)C[C@@]2(C)[C@H]1CC[C@]2(O)C(=O)COC(=O)[C@@H]1CCC(=O)N1 [4-Pregnene-11β,17α-dihydroxy-21-(2'-oxopyrrolidin-5'-yl)carbonyloxy-3,20-dione] | 50.5 | – | – |
| CCCC(=O)O[C@]1(C(=O)COC(=O)CCC(=O)N(CC)CC)CC[C@H]2[C@@H]3CCC4=CC(=O)CC[C@]4(C)[C@H]3[C@@H](O)C[C@@]21C [4-Pregnene-11β-Hydroxy-17α-butyryloxy-21-(N,N-diethylsuccinamyloxy)-3,20-dione] | 20.4 | – | – |
| C[C@]12CCC(=O)C=C1CC[C@@H]1[C@@H]2[C@@H](O)C[C@@]2(C)[C@H]1CC[C@]2(O)C(=O)CO [Hydrocortisone] | 3.3 | 190.3 ± 29.7 | – |
| CC1(C)O[C@@H]2C[C@H]3[C@@H]4CCC5=CC(=O)C=C[C@]5(C)[C@@]4(F)[C@@H](O)C[C@]3(C)[C@]2(C(=O)CO)O1 [Triamcinolone acetonide] | 53.8 | 65.3 ± 8.1 | 45.8 |
| CCCC(=O)O[C@]1(C(=O)CO)CC[C@H]2[C@@H]3CCC4=CC(=O)CC[C@]4(C)[C@H]3[C@@H](O)C[C@@]21C [Hydrocortisone 17-butyrate] | 28.9 | 149.6 ± 11.7 | 39.2 |
